Experimental findings from PMC4658428 (Frontiers in Microbiology, 2015) are described below.

Each structure is given as a SMILES string.

What all share (format): cell-based
Assay [1] deals with LdtR mutant R37A, lacZ reporter in B. subtilis.
The test system of assay [2] is S. meliloti strain SMP4C (ΔldtRSMc-pBBR1MCS-5::LdtR(F64A)).
Assay [3] relates to LdtR mutant Y81A, lacZ reporter in B. subtilis.
The subject of assay [4] is S. meliloti strain SMP4A (ΔldtRSMc-pBBR1MCS-5::LdtR(T43A)).
Assay [5] relates to S. meliloti strain SMP4B (ΔldtRSMc-pBBR1MCS-5::LdtR(L61A)).

For `CCc1oc2ccccc2c1C(=O)c1cc(Br)c(O)c(Br)c1` [benzbromarone], the “decrease in β-galactosidase activity” value in assay [1] and in assay [3] was “around 40%” each time. In addition, the results for the “Growth rate constant, k” value in assay [2], in assay [4] and in assay [5] were 0.058 ± 0.003 generations/h, 0.056 ± 0.004 generations/h and 0.056 ± 0.005 generations/h, respectively. Also, the Mean generation time in assay [2] stood at 17.2 h; in assay [4], 17.9 h; in assay [5] it was 17.9 h.
